This is an account of results in patent publication US8598383B2, “Pharmaceutical composition for treating or preventing degenerative and inflammatory diseases” (Neurotech Pharmaceuticals Co., Ltd., priority 2006, dated 2013).

The subject of data set [1] is IL-6 production in BV2 cell line. Nature of the data set: Suppressing effect on production of cytokine (ELISA), IL-6. The format is cell-based. Particulars: Mus musculus, BV-2, level in medium, LPS + 100 uM of sample, 24 hours. Here is the method:
Effects of the 2-hydroxybenzoic acid derivatives on production of cytokine in BV2 cell line were evaluated. 24-well plate was inoculated with 1×10^6 cells of BV2 cell line, and treated with both LPS, inflammation-inducing material, and 100 uM of sample (the 2-hydroxybenzoic acid derivative or comparative drug), together. After 24 hours of incubation, culture medium was collected. The levels of cytokines, TNF-α and IL-6, in the medium were evaluated by ELISA method.
For orientation: In an ELISA, binding on a coated surface is turned into a signal by an enzyme label.

The test system of the next data set is gastric mucous membrane. Description: Safety test about induction of gastric mucous membrane damage. The format is in vivo. Particulars: oral, up to 1,000 mg/kg, aspirin as control. How it is done: Test samples were orally administered at different doses to evaluate the degree of the gastric mucous membrane damage. Aspirin was used as control.
FIG. 2 is results showing degrees of the gastric mucous membrane damage. Test samples were orally administered at indicated doses. […] Indomethacine, ibuprofen and celecoxib were used as control.
Conventional NSAIDs have side effects causing damages to the gastric mucous membrane. Therefore, it was evaluated whether compound 2 having anti-inflammatory effect causes the gastric damage or not. 30, 100 or 300 mg/kg of aspirin was orally administered as control.

For data set [2], the system named is TNF-α, IL-1β and IL-6 in brain. Nature of the data set: Cytokines in brain of APP/PS1 dementia mice (ELISA). Type of data set: in vivo, mouse. Particulars: 25 mg/kg/day in chow for 7 months, vs APP/PS1 fed general chow. How it is done: FIG. 25 are graphs showing the levels of TNF-α, IL-1β or IL-6 in brain of 10.5 month-old APP/PS1 dementia mouse (Tg+). The levels were evaluated by ELISA method.
After administration of drug for 7 months, the levels of TNF-α, IL-1β and IL-6 were quantified by ELISA (mean±SEM, n=3-5). Significant difference from control (APP/PS1 mouse fed with general chow only), p<0.05 using one-way ANOVA according to Student-Neuman-Keuls' test.

In data set [3] the test system is gastric bleeding induced by 60% EtOH/150 mM HCl. Nature of the data set: Gastritis induced by alcohol and hydrochloric acid. Particulars: oral. The format is in vivo, rat. Here is the method:
FIG. 8 is results showing protecting effect of compound on gastrointestinal bleeding caused by alcohol/hydrochloric acid (EtOH/HCl). A is a picture of normal rat stomach. B is a picture of rat stomach, wherein gastrointestinal bleeding was caused by oral administration of 60% EtOH/150 mM HCl after 200˜250 g of rat was fasted for 24 hours. C is a picture of rat stomach, wherein rat was pre-treated with compound 230 minutes before administration of alcohol/HCl, and stomach was taken out 90 minutes after gastrointestinal bleeding. D is a graph quantifying damaged area to evaluate the degree of stomach injury.
Effect of the 2-hydroxybenzoic acid derivative on gastritis induced by alcohol and hydrochloric acid was evaluated. 200˜250 g of male SD rat was fasted for 24 hours, and 60% EtOH/150 mM HCl was orally administered to induce gastric bleeding (gastric injury). Compound 2 was orally administered according to indicated dose 30 minutes before the gastric bleeding, and stomach was taken out 90 minutes after gastric bleeding to evaluate the degree of gastric injury.

A further data set concerns TNF-α mRNA in AGS cell. Nature of the data set: Expression of TNF-α mRNA in ethanol-treated AGS cells (RT-PCR). Type of data set: cell-based, human. Particulars: 1-100 uM, ethanol 24 hours. Here is the method:
FIG. 7 is a picture showing the expression degree of TNF-α mRNA. Cultured AGS cell was treated with 25 mM of alcohol for 24 hours, alone or with compound 2 having indicated concentration. Then, mRNA was extracted and evaluated by RT-PCR method.
As one marker of inflammation, the expression level of TNF-α mRNA was evaluated by RT-PCR method. Samples treated with ethanol for 24 hours were used.

The test system of data set [4] is thermal hyperalgesia induced by carrageenan. Description: Carrageenan-induced thermal hyperalgesia. Type of data set: in vivo, rat. How it is done: FIG. 11 is results showing efficacy of compound 2 through thermal hyperalgesia induced by carrageenan, one of arthritis animal models. 2% carrageenan was intradermally injected into hindpaw of rat to induce thermal hyperalgesia.
Analgesic effect of compound 2, one example of the 2-hydroxybenzoic acid derivative, was evaluated in arthritis model. 2% carrageenan was intradermally injected into left pes of rat, and 3-300 mg/kg of compound 2 was orally administered to evaluate effect of compound 2 on thermal hyperalgesia of arthritis model.

Data set [5] can be described thus: Single-dose toxicity test. The format is in vivo. Particulars: mouse, in vivo; single dose. How it is done:
FIG. 32 is results of single dose toxicity testing of some 2-hydroxybenzoic acid derivatives according to the present invention.
Single-dose toxicities of the 2-hydroxybenzoic acid derivatives were evaluated.

Data set [6] concerns IL-1alpha in exudation of air pouch. Description: Zymosan air pouch inflammation model, IL-1alpha (ELISA). Type of data set: in vivo. As to conditions: 3-300 mg/kg once oral 1 hour before zymosan, 4 hours later. Here is the method:
FIG. 13 is graphs showing how much compound 2 decreases the level of IL-1alpha induced by zymosan, one of arthritis animal models. 1% zymosan was administered with air pouch, and compound 2 was once orally administered according to indicated dose 1 hour before administration of zymosan. The level of IL-1alpha in an exudation of air pouch was evaluated by ELISA method 4 hours later.
Anti-inflammation effect of compound 2 in arthritis model was evaluated with zymosan. 0.5 ml of 1% zymosan was administered with air pouch, and 3-300 mg/kg of compound 2 was once orally administered 1 hour before administration of zymosan. Edema, a main symptom of arthritis, and the level of cytokine were observed 4 hours later.

The next data set relates to NSAID-induced gastritis. Nature of the data set: Gastritis caused by NSAID (indomethacine). The format is in vivo, rat. As to conditions: indomethacine 6 hour and 12 hour models; given 1 hour before NSAID. Here is the method: FIG. 10 is results showing protecting effect of compound 2 on gastritis induced by NSAID. 250 g of rat was fasted for 24 hours, and indomethacin was orally administered to cause gastrointestinal bleeding (A and C). Compound 2 was administered 1 hour before administration of NSAID (B and D), and stomach was taken out 6 hours (A and B) or 12 hours (C and D) after gastrointestinal bleeding.
Effect of the 2-hydroxybenzoic acid derivative on NSAID-induced gastritis was evaluated.

Data set [7] has as its system APP/PS1 transgenic mice behavior. Nature of the data set: Elevated plus maze test in APP/PS1 mice. Particulars: 25 mg/kg/day for 7 months, vs chow only. Type of data set: in vivo, mouse. Here is the method: APP/PS1 transgenic mice were fed chow alone or containing 25 mg/kg/day of compound 2, for 7 months (3.5˜10.5 months). After administration of 7 months, Elevated plus maze test was performed to evaluate the behavior improvement. Elevated plus maze has two open arms (30 cm×6 cm×0.5 cm) and two closed arms (30 cm×6 cm×15 cm), and also has 6 cm×6 cm of center platform. In Elevated plus maze test, mouse was carefully laid in the center with the head of the mouse toward open arm. The time that the mouse spent in the open arm was recorded for 5 minutes (mean±SEM, n=3-5). *, Significant difference from control (APP/PS1 mouse fed with general chow only), p<0.05 using one-way ANOVA according to Student-Neuman-Keuls' test.

For `O=C(O)c1cc(NCCc2ccc(C(F)(F)F)cc2)ccc1O` [compound 2, 2-hydroxy-5-[2-(4-trifluoromethyl-phenyl)-ethylamino]-benzoic acid], the inhibition at 100 µM in data set [1] was determined as 70.3%. The “gastric mucous membrane damage” value in the data set with gastric mucous membrane is “did not cause damage to the gastric mucous membrane”; in the data set on gastric mucous membrane (listed as Compound 2), “did not cause the gastric side effect”. For the same compound, the “levels of TNF-α, IL-1β and IL-6 in brain” value in data set [2] was “significantly reduced the levels of TNF-α, IL-β and IL-6”. Further, in data set [3], the “toxicity in EtOH/HCl gastritis test” value is given as “did not show any toxicity”. In addition, the “protection against gastric bleeding” value in data set [3] (30 minutes before EtOH/HCl, stomach taken out 90 minutes after) is “protected stomach against gastric bleeding induction”. Further, in the data set with TNF-α mRNA in AGS cell, the “expression of TNF-α mRNA” value was “completely suppressed”. Besides, the “thermal hyperalgesia, comparison with ibuprofen” value in data set [4] (100 mg treatment) is listed as “equivalent level of decreasing effect with 50 mg/kg of ibuprofen”. Also, in data set [4] (300 mg/kg oral), the “reduction of thermal hyperalgesia” value is reported as “over 90%”. Further, the thermal hyperalgesia result in data set [4] (3-300 mg/kg oral) is recorded as “decreased thermal hyperalgesia in a dose-dependent manner”. Also, in data set [5], the LD50 is greater than 3000 mg/kg. The “level of IL-1alpha” value in data set [6] is recorded as “decreased in a dose-dependent manner”. In the data set on NSAID-induced gastritis, the “protecting effect on stomach” value is listed as “excellent protecting effect on stomach”. The “time spent in the open arm” value in [7] is “decreased the time for mouse to stay in the open arm”.

As a reminder, the inhibition is the share of the control response that was lost under treatment. By LD50 is commonly meant the dose at which mortality reaches 50%. Read a low LD50 as greater toxicity.
